Results published in patent US12227500B2, “Substituted pyrrolo[2,3-b]pyridines for suppressing toxic endoplasmic reticulum stress” (THE TRUSTEES OF COLUMBIA UNIVERSITY IN THE CITY OF NEW YORK, priority 2018, dated 2025).

Key:
Assay in all cases: Radiolabeled ATP kinase assay, panel of 371 kinases (Table S6)
Assay type in all cases: biochemical
[1] = target: T1, panel of 371 human kinases (Homo sapiens, UniProt P06213); settings: IR; 0.1 μM; 10 μM ATP; read-out: % Enzyme Activity (relative to DMSO controls)
T1 construct: purchased Reaction Biology Corp
Text: (§1) ; FIG. 38C). […]. Further targeted analyses, such as genetic knock-down or knock-out, may be warranted to parse the role of these additional kinases in our model of neurodegeneration.

[2] = target: T2, panel of 371 human kinases (Homo sapiens, UniProt P15056); settings: BRAF; 0.1 μM; 10 μM ATP; read-out: % Enzyme Activity (relative to DMSO controls)
T2 construct: purchased Reaction Biology Corp
Text: as §1

[3] = target: T3, panel of 371 human kinases (Homo sapiens, UniProt P21709); settings: EPHA1; 0.1 μM; 10 μM ATP; read-out: % Enzyme Activity (relative to DMSO controls)
T3 construct: purchased Reaction Biology Corp
Text: as §1

[4] = target: T4, panel of 371 human kinases (Homo sapiens, UniProt P27361); settings: ERK1; 0.1 μM; 10 μM ATP; read-out: % Enzyme Activity (relative to DMSO controls)
T4 construct: purchased Reaction Biology Corp
T4 sequence (P27361 whole entry): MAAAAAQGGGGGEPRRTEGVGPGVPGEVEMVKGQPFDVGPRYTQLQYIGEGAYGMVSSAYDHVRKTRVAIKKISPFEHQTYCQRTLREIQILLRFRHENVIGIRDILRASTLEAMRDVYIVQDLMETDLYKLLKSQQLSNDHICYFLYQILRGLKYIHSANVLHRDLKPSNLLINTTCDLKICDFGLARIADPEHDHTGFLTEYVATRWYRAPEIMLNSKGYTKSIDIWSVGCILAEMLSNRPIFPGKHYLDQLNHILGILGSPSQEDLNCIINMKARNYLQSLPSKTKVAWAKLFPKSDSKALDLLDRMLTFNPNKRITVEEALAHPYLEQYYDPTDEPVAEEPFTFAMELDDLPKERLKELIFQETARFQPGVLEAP
Text: as §1

[5] = target: T5, panel of 371 human kinases (Homo sapiens, UniProt P29323); settings: EPHB2; 0.1 μM; 10 μM ATP; read-out: % Enzyme Activity (relative to DMSO controls)
T5 construct: purchased Reaction Biology Corp
Text: as §1

[6] = target: T6, panel of 371 human kinases (Homo sapiens, UniProt P45984); settings: JNK2; 0.1 μM; 10 μM ATP; read-out: % Enzyme Activity (relative to DMSO controls)
T6 construct: purchased Reaction Biology Corp
Text: as §1

[7] = target: T7, panel of 371 human kinases (Homo sapiens, UniProt Q04771); settings: ALK2/ACVR1; 0.1 μM; 10 μM ATP; read-out: % Enzyme Activity (relative to DMSO controls)
T7 construct: purchased Reaction Biology Corp
Text: as §1

[8] = target: T8, panel of 371 human kinases (Homo sapiens, UniProt Q14012); settings: CAMK1a; 0.1 μM; 10 μM ATP; read-out: % Enzyme Activity (relative to DMSO controls)
T8 construct: purchased Reaction Biology Corp
T8 sequence (Q14012 whole entry): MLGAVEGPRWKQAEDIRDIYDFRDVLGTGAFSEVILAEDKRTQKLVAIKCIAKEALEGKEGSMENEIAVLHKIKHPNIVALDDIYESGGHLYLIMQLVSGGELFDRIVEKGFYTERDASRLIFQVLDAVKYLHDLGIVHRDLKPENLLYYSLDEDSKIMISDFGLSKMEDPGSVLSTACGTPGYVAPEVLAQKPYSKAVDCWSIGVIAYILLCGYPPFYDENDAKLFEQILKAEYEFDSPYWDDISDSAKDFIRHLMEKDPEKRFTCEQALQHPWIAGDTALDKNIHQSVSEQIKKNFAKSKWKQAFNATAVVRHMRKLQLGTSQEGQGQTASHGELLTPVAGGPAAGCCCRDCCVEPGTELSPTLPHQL
Text: as §1

[9] = target: T9, panel of 371 human kinases (Homo sapiens, UniProt Q15375); settings: EPHA7; 0.1 μM; 10 μM ATP; read-out: % Enzyme Activity (relative to DMSO controls)
T9 construct: purchased Reaction Biology Corp
Text: as §1

[10] = target: T10, panel of 371 human kinases (Homo sapiens, UniProt Q15569); settings: TESK1; 0.1 μM; 10 μM ATP; read-out: % Enzyme Activity (relative to DMSO controls)
T10 construct: purchased Reaction Biology Corp
T10 sequence (Q15569 whole entry): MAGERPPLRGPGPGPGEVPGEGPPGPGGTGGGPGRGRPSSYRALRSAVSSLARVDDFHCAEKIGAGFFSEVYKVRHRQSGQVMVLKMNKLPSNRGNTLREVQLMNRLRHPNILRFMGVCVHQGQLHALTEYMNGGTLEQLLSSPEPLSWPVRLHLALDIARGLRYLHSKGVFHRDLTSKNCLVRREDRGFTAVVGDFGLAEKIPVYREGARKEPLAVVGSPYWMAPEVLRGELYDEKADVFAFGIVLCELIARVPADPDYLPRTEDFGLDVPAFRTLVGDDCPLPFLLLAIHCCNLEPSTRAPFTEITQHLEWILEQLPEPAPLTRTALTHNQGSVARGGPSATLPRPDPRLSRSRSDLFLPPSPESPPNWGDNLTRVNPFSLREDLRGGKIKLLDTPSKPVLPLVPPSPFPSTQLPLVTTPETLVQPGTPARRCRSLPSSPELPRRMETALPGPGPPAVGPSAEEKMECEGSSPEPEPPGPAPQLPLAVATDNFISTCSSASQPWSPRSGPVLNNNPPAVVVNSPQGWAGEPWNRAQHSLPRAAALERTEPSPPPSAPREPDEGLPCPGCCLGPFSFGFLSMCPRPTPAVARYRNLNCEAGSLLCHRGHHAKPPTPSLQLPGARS
Text: as §1

[11] = target: T11, panel of 371 human kinases (Homo sapiens, UniProt Q32MK0); settings: MYLK3; 0.1 μM; 10 μM ATP; read-out: % Enzyme Activity (relative to DMSO controls)
T11 construct: purchased Reaction Biology Corp
Text: as §1

[12] = target: T12, panel of 371 human kinases (Homo sapiens, UniProt Q5VT25); settings: MRCKa/CDC42BPA; 0.1 μM; 10 μM ATP; read-out: % Enzyme Activity (relative to DMSO controls)
T12 construct: purchased Reaction Biology Corp
T12 sequence (Q5VT25 whole entry): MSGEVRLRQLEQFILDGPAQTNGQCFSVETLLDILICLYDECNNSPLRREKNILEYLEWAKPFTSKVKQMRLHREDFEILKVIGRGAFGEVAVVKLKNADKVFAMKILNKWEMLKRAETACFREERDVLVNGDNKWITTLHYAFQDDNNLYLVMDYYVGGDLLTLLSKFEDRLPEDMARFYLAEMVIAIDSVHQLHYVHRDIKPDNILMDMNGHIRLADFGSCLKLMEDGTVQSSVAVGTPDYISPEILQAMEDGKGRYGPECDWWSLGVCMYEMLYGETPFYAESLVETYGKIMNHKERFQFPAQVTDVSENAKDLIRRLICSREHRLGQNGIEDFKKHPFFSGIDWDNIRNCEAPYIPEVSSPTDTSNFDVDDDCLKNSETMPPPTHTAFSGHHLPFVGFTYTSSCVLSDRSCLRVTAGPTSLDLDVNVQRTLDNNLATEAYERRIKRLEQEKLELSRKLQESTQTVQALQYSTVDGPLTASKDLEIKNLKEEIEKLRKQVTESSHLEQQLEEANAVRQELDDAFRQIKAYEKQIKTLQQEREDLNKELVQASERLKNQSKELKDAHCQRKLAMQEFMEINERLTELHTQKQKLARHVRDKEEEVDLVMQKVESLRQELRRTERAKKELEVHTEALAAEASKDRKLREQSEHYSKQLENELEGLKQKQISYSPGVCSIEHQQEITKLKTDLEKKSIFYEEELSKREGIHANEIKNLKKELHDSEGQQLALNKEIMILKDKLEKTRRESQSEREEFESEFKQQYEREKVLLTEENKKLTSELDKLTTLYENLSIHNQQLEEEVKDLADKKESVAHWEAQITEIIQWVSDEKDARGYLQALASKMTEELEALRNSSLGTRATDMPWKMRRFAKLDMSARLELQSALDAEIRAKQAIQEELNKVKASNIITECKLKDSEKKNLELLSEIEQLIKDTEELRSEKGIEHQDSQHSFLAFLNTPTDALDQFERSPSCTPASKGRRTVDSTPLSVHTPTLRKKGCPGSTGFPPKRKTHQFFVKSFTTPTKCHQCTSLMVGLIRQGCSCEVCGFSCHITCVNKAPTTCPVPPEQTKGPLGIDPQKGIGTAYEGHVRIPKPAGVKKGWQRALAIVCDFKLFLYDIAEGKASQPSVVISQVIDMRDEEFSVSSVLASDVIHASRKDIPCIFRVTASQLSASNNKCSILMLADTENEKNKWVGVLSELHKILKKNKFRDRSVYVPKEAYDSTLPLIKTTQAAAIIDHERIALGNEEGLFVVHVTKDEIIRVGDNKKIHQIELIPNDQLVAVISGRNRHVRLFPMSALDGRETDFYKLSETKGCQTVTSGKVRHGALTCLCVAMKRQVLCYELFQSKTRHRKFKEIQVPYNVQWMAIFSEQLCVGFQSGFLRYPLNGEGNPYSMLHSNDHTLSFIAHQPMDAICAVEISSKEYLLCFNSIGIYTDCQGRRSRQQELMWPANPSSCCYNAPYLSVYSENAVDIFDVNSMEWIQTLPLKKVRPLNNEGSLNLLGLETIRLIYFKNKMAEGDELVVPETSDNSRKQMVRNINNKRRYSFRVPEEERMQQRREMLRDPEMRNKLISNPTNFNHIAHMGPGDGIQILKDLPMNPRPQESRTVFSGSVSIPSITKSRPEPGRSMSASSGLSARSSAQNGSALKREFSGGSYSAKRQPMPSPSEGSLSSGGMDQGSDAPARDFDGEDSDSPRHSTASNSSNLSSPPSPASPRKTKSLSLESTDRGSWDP
Text: as §1

[13] = target: T13, panel of 371 human kinases (Homo sapiens, UniProt Q6P5Z2); settings: PKN3/PRK3; 0.1 μM; 10 μM ATP; read-out: % Enzyme Activity (relative to DMSO controls)
T13 construct: purchased Reaction Biology Corp
Text: as §1

[14] = target: T14, panel of 371 human kinases (Homo sapiens, UniProt Q8WXR4); settings: MYO3b; 0.1 μM; 10 μM ATP; read-out: % Enzyme Activity (relative to DMSO controls)
T14 construct: purchased Reaction Biology Corp
T14 sequence (Q8WXR4 whole entry): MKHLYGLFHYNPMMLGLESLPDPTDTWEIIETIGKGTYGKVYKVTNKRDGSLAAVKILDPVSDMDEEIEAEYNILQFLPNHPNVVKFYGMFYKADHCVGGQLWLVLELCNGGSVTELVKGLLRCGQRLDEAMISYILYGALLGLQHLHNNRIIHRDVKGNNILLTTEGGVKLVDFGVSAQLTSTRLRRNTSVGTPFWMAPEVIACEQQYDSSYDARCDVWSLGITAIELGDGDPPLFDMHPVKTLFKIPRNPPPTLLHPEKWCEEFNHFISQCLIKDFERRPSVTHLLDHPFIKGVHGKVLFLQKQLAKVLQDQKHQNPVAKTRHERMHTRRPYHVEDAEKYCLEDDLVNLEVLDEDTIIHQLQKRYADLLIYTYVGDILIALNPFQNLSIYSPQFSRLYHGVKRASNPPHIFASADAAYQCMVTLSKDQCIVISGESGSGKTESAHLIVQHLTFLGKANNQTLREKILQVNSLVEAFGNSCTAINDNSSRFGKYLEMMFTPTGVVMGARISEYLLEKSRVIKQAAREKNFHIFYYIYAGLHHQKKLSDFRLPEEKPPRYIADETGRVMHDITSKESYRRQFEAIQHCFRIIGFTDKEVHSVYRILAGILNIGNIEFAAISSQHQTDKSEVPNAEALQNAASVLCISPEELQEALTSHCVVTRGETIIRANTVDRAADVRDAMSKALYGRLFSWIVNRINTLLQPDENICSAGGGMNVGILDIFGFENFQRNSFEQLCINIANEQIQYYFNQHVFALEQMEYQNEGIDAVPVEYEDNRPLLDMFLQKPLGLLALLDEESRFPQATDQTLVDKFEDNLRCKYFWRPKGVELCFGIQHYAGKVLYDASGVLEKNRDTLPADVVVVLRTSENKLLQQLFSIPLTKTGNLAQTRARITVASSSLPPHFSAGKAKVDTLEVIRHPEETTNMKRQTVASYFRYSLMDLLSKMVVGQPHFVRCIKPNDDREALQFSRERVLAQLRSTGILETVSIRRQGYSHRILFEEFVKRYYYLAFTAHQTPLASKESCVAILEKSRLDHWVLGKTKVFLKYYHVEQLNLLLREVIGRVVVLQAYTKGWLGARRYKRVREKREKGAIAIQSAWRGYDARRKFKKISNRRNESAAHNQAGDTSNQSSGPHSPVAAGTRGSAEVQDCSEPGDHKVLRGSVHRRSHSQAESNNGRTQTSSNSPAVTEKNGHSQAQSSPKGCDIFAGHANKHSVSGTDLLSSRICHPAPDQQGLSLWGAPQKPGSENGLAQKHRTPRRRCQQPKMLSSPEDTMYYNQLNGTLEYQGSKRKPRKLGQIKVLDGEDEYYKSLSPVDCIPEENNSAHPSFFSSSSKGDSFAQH
Text: as §1

[15] = target: T15, panel of 371 human kinases (Homo sapiens, UniProt Q96GD4); settings: Aurora B; 0.1 μM; 10 μM ATP; read-out: % Enzyme Activity (relative to DMSO controls)
T15 construct: purchased Reaction Biology Corp
Text: as §1

[16] = target: T16, panel of 371 human kinases (Homo sapiens, UniProt Q96PY6); settings: NEK1; 0.1 μM; 10 μM ATP; read-out: % Enzyme Activity (relative to DMSO controls)
T16 construct: purchased Reaction Biology Corp
Text: as §1

[17] = target: T17, panel of 371 human kinases (Homo sapiens, UniProt Q9NQU5); settings: PAK6; 0.1 μM; 10 μM ATP; read-out: % Enzyme Activity (relative to DMSO controls)
T17 construct: purchased Reaction Biology Corp
Text: as §1

[18] = target: T18, panel of 371 human kinases (Homo sapiens, UniProt Q9P0L2); settings: MARK1; 0.1 μM; 10 μM ATP; read-out: % Enzyme Activity (relative to DMSO controls)
T18 construct: purchased Reaction Biology Corp
Text: as §1

[19] = target: T19, panel of 371 human kinases (Homo sapiens, UniProt Q9UF33); settings: EPHA6; 0.1 μM; 10 μM ATP; read-out: % Enzyme Activity (relative to DMSO controls)
T19 construct: purchased Reaction Biology Corp
Text: as §1

[20] = target: T20, panel of 371 human kinases (Homo sapiens, UniProt Q9Y572); settings: RIPK3; 0.1 μM; 10 μM ATP; read-out: % Enzyme Activity (relative to DMSO controls)
T20 construct: purchased Reaction Biology Corp
T20 sequence (Q9Y572 whole entry): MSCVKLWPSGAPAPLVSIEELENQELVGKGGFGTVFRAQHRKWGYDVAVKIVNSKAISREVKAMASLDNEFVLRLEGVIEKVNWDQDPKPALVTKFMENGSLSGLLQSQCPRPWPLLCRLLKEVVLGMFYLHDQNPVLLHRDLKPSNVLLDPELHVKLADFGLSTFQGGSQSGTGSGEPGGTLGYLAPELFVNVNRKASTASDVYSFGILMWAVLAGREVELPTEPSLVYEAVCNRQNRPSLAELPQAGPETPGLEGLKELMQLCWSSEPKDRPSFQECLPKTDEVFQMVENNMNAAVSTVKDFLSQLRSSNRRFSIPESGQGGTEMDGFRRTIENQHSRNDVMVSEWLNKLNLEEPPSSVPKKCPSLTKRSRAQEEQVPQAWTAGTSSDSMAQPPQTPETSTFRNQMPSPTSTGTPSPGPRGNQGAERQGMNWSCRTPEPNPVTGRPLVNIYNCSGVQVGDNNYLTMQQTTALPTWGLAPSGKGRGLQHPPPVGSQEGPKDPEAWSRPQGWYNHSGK
Text: as §1

For `CN1CCN(Cc2ccc(-c3cnc4[nH]cc(-c5ccc6[nH]ccc6c5)c4c3)cc2)CC1` [Compound 1, 3-(1H-Indol-5-yl)-5-(4-((4-methylpiperazin-1-yl)methyl)phenyl)-1H-pyrrolo[2,3-b]pyridine, reference compound], the remaining activity at 0.1 µM [1] was 100%, the remaining activity at 0.1 µM [2] was 105% and the remaining activity at 0.1 µM [3] was 74.2%. The remaining activity at 0.1 µM [4] was 86%, the remaining activity at 0.1 µM [5] was 88.6% and the remaining activity at 0.1 µM [6] was 99.4%. It also gave a remaining activity at 0.1 µM [7] of 121%, a remaining activity at 0.1 µM [8] of 100% and a remaining activity at 0.1 µM [9] of 89.5%. It also gave a remaining activity at 0.1 µM [10] of 105%, a remaining activity at 0.1 µM [11] of 109% and a remaining activity at 0.1 µM [12] of 105%. For the same compound, the remaining activity at 0.1 µM [13] was 84.7%, the remaining activity at 0.1 µM [14] was 80.8% and the remaining activity at 0.1 µM [15] was 103%. For the same compound, the remaining activity at 0.1 µM [16] was 80.1%, the remaining activity at 0.1 µM [17] was 94.6% and the remaining activity at 0.1 µM [18] was 86.2%. It also gave a remaining activity at 0.1 µM [19] of 106% and a remaining activity at 0.1 µM [20] of 100%.

With `OCCN1CCN(Cc2ccc(-c3cnc4[nH]cc(-c5cccc(Cl)c5)c4c3)cc2)CC1` [Compound 12k, 2-(4-(4-(3-(3-Chlorophenyl)-1H-pyrrolo[2,3-b]pyridin-5-yl)benzyl)piperazin-1-yl)ethan-1-ol] the remaining activity at 0.1 µM [1] was 112%, the remaining activity at 0.1 µM [2] was 98% and the remaining activity at 0.1 µM [3] was 89.4%. It also gave a remaining activity at 0.1 µM [4] of 92.8%, a remaining activity at 0.1 µM [5] of 98.3% and a remaining activity at 0.1 µM [6] of 97%. The remaining activity at 0.1 µM [7] was 126%, the remaining activity at 0.1 µM [8] was 121% and the remaining activity at 0.1 µM [9] was 91.3%. It also gave a remaining activity at 0.1 µM [10] of 101%, a remaining activity at 0.1 µM [11] of 96.7% and a remaining activity at 0.1 µM [12] of 96.1%. It also gave a remaining activity at 0.1 µM [13] of 93.7%, a remaining activity at 0.1 µM [14] of 40.7% and a remaining activity at 0.1 µM [15] of 82.6%. For the same compound, the remaining activity at 0.1 µM [16] was 76.5%, the remaining activity at 0.1 µM [17] was 96.3% and the remaining activity at 0.1 µM [18] was 52.5%. For the same compound, the remaining activity at 0.1 µM [19] was 98.2% and the remaining activity at 0.1 µM [20] was 99.4%.
